Like-named read-outs stand apart in the source and are kept apart here.
Key:
[1] = system: Dengue virus type 2; assay: Dengue virus type 2 IFA assay (E protein) in Vero E6 cells; type: cell-based; details: MOI 0.02, 5 days at 33° C, read-out: DV2 EC50
Method: (§1) Compounds 1-9 were evaluated for their inhibitory activities against Dengue virus, another single positive-stranded RNA virus belonging to genus of flavivirus, using an IFA assay that targeted the Dengue virus Envelope (“E”) protein.
(§2) Vero E6 cells (BCRC #60476, Bioresource Collection and Research Center, Hsinchu, Taiwan) were treated with one of Compounds 1-9 at a predetermined concentration for 1 hour at 37° C. The cells were infected with Dengue virus type 1 (“DV1”, ATCC VR-1856, American Type Culture Collection, Manassas, VA, USA) at MOI=0.002 or Dengue virus type 2 (“DV2”, ATCC VR-1584, American Type Culture Collection, Manassas, VA, USA) at MOI=0.02, both for 5 days at 33° C. They were then fixed with 10% formalin and permeabilized with methanol. Subsequently, the cells were stained with anti-flavivirus E antibody (ATCC HB-112, American Type Culture Collection, Manassas, VA, USA) and anti-mouse IgG-FITC (MP Biomedicals, Irvine, CA, USA). The nuclei of the cells were counter stained with DAPI (Thermo Fisher Scientific, MA, USA). The E protein expression was measured by using a high-content image analysis system (Molecular Devices). The cell viability was determined by MTS. EC50 and CC50 were calculated by Prism software.

[2] = Vero E6 cell viability by MTS (Zika study); type: cell-based; details: African green monkey, Vero E6 cells
Method: (§3) Vero E6 cells (BCRC #60476, Bioresource Collection and Research Center, Hsinchu, Taiwan) were treated with one of Compounds 1-9 at a predetermined concentration for 1 hour at 37° C. The cells were adsorbed with Zika virus (ATCC VR-1843, American Type Culture Collection, Manassas, VA, USA) at MOI=0.02 for 49 hours at 37° C. The cells were fixed with 10% formalin, permeabilized with methanol. The cells were stained with anti-flavivirus E antibody (ATCC HB-112, American Type Culture Collection, Manassas, VA, USA) and anti-mouse IgG-FITC (MP Biomedicals, Irvine, CA, USA). The nuclei were counter stained with DAPI (in blue) (Thermo Fisher Scientific, MA, USA). The E protein expression was measured using a high-content image analysis system (Molecular Devices). The cell viability was determined by MTS. Both EC50 and CC50 were calculated by Prism software.
(§4) Their cytotoxic effects were also determined by the MTS assay described above using Vero E6 cells.

[3] = system: Dengue virus type 1; assay: Dengue virus type 1 IFA assay (E protein) in Vero E6 cells; type: cell-based; details: MOI 0.002, 5 days at 33° C, read-out: DV1 EC50
Method: as §1, §2

[4] = system: Zika virus; assay: Zika virus IFA assay (E protein) in Vero E6 cells; type: cell-based; details: read-out: EC50 (Zika virus)
Method: Compounds 1-9 were evaluated for their inhibitory activities against Zika virus using an IFA assay, which targeted Zika virus Envelope (“E”) protein.
as §3

[5] = Vero E6 cell viability by MTS (Dengue study); type: cell-based; details: African green monkey, Vero E6 cells
Method: as §2

[6] = system: Vero E6 cells; assay: Vero E6 cell viability by MTS (Zika study); type: cell-based
Method: as §3, §4

[7] = system: Vero E6 cells; assay: Vero E6 cell viability by MTS (Dengue study); type: cell-based
Method: as §2

[8] = system: HCoV-229E; assay: HCoV-229E cytopathic effect / end point assay by TCID50 with crystal violet in MRC5 cells; details: Human coronavirus 229E, MRC5, read-out: EC50 (HCoV-229E)
Method: An end point assay by TCID50 was performed. Crystal violet was used to stain live cells to determine the EC50 of each compound. Further, CC50 and selective index were calculated.

[9] = HCT-8 cell viability (MTS); details: human, HCT-8 cells
[10] = system: SARS-CoV-2; assay: SARS-CoV-2 cytopathic effect (CPE) by visualization in infected Vero E6 cells; type: cell-based; details: Severe acute respiratory syndrome coronavirus 2, Vero C1008, read-out: SARS-CoV-2 inhibition EC50, CPE
Method: Compounds 1-3 were examined for their inhibitory activity against SARS-CoV-2 in Vero E6 cells. Cytopathic effects (“CPE”) of SARS-CoV-2 infected Vero E6 cells, with treatment of compounds in 2-fold dilution at a series of 12 concentrations, were visualized. EC50 and CC50 values were calculated.

[11] = system: HCoV-OC43; assay: HCoV-OC43 IFA assay (N protein) in HCT-8 cells; type: cell-based
[12] = system: SARS-CoV-2; assay: SARS-CoV-2 immunofluorescence assay (IFA), N protein expression in Vero E6 cells; type: cell-based
Method: Vero E6 cells derived from BCRC #60476 (Bioresource Collection and Research Center, Hsinchu, Taiwan) were treated with each compound at an indicated concentration for 1 hour at 37° C. The cells were adsorbed with SARS-CoV-2 viruses (TCDC #4, National Taiwan University, Taipei, Taiwan, ROC) at multiplicity of infection (“MOI”) of 0.01 for 1 hour at 37° C. After virus adsorption, the cells were washed with phosphate-buffered saline (“PBS”). A fresh medium containing the compound was added at an indicated concentration. The resultant mixture was incubated for 2 days. The cells were fixed with 4% paraformaldehyde and permeabilized with a 0.5% Triton™ X-100 detergent solution (Thermo Fisher Scientific, Waltham, MA). Subsequently, they were stained with an anti-SARS-CoV-2 N protein antibody and anti-human IgG-488 (in green). The nuclei of the cells were counter stained with 4′,6-diamidino-2-phenylindole (“DAPI”, Thermo Fisher Scientific, MA, USA). The N protein expression was measured using a high-content image analysis system (Molecular Devices, San Jose, CA). The cell viability was determined by Cell Counting Kit-8 (Sigma-Aldrich, St. Louis, MO) EC50 and CC50 values were calculated by Prism software. […] Both EC50 and CC50 are measured in molar units, e.g., mol/L (“M”), μmol/L (“μM”), and nmol/L (“nM”).

[13] = system: SARS-CoV-2; assay: SARS-CoV-2 plaque assay in Vero E6 cells; type: cell-based; details: Severe acute respiratory syndrome coronavirus 2, Vero C1008
Method: The assay was performed in triplicate in 24-well tissue culture plates. Vero E6 cells were seeded in Dulbecco's modified Eagle's medium (“DMEM”) with 10% Fetal Bovine Serum (“FBS”, Biological Industries, Kibbutz, Israel) and antibiotics one day before infection. SARS-CoV-2 viruses were added to the cell monolayer and allowed to sit for 1 hour at 37° C. After viruses were removed, the cell monolayer was washed once with PBS before covering with media containing agarose or methylcellulose for 5-7 days. The cells were fixed with 3.7% formaldehyde overnight followed by removal of overlay media. They were then stained with crystal violet to count the plaque-forming units (“PFU”). The percentage of inhibition was calculated as [1−(VD/VC)]×100%, where VD and VC refer to the virus titer in the presence and absence of a test compound, respectively.

[14] = Vero E6 cells, MOI 0.02, 49 hours
[15] = Dengue virus, Vero C1008, 120 h
[16] = Severe acute respiratory syndrome coronavirus 2, Vero C1008, 48 h, Vero E6 cells, MOI 0.01, 2 days, run 1, read-out: SARS-CoV-2 inhibition EC50, IFA-1
[17] = Severe acute respiratory syndrome coronavirus 2, Vero C1008, 48 h, Vero E6 cells, MOI 0.01, 2 days, run 2, read-out: SARS-CoV-2 inhibition EC50, IFA-2
[18] = Severe acute respiratory syndrome coronavirus 2, Vero C1008, IFA, range over Compounds 1, 2 and 3, read-out: EC50 against SARS-CoV-2 (range given)

## CCN1Cc2c(c3cc(OC)c(OC)cc3c3cc(OC)c(OC)cc23)C(O)C1 (single isomer, unassigned) [Compound 7]
[1]
  EC50: 124 nM
[2]
  CC50: > 5 µM
[3]
  EC50: 73.1 nM
[4]; [14]
  EC50: 44.4 nM
[5]
  CC50: > 5 µM

## CCN1Cc2c(c3cc(OC)c(OC)cc3c3cc(OC)c(OC)cc23)C(O)C1 (single isomer, unassigned) [Compound 9]
[1]
  EC50: 616 nM
[6]
  CC50: > 5 µM
[3]
  EC50: 296 nM
[4]; [14]
  EC50: 144 nM
[7]
  CC50: > 5 µM

## COc1cc2c3c(c4cc(OC)c(OC)cc4c2cc1OC)CN1CCC[C@H]1C3 [Compound 1, (13as)-2,3,6,7-tetramethoxy-9,11,12,13,13a,14-hexahydrophenanthro[9,10-f] indolizine]
[1]; [15]
  EC50: 32.5 nM
[2]
  CC50: > 5 µM
[3]; [15]
  EC50: 18.4 nM
[8]
  EC50: 71.4 ± 13.2 nM
[9]
  CC50: > 10 µM
[4]; Zika virus, Vero C1008, 49 h
  EC50: 61.4 nM
[5]
  CC50: > 5 µM
[10]
  EC50: 78 nM
[11]; Betacoronavirus 1, OC43, HCT-8, read-out: EC50 (HCoV-OC43)
  EC50: 68 ± 2.7 nM
[12]; [16]
  EC50: 64 nM
[12]; [17]
  EC50: 76.8 nM
[12]; [18]
  EC50: 9 to 77 nM

## CCN1Cc2c(c3ccc(OC)cc3c3cc(OC)c(OC)cc23)C(O)C1 (stereo not shown) [Compound 2]
[1]; [15]
  EC50: 4.7 nM
[2]
  CC50: > 5 µM
[3]; [15]
  EC50: 4.3 nM
[8]
  EC50: 6.5 ± 1 nM
[9]
  CC50: > 10 µM
[4]; Zika virus, Vero C1008, 49 h, Vero E6 cells, MOI 0.02, 49 hours
  EC50: 15.3 nM
[5]
  CC50: > 5 µM
[13]; Vero E6 cells, run 1, read-out: SARS-CoV-2 inhibition EC50, Plaque assay-1
  EC50: 10.8 nM
[13]; Vero E6 cells, run 2, read-out: SARS-CoV-2 inhibition EC50, Plaque assay-2
  EC50: 13.8 nM
[13]; infected Vero E6 cells, four measurements, read-out: EC50 against SARS-CoV-2, plaque assay, all four measurements
  EC50: 11 to 14 nM
[10]
  EC50: 2.5 nM
[11]; Betacoronavirus 1, OC43, HCT-8 cells, MOI 0.05, means ± S.D. from three independent experiments, read-out: EC50 (HCoV-OC43)
  EC50: 16.4 ± 4.7 nM
[12]; [16]
  EC50: 9.1 nM
[12]; [17]
  EC50: 13.9 nM
[12]; [18]
  EC50: 9 to 77 nM

Reference: US20240033256A1, “INHIBITORS OF POSITIVE STRAND RNA VIRUSES” (priority 2020, published 2024)
